Assay [1] has as its target T1, human enzyme NAMPT (full length) (Homo sapiens, UniProt P43490).
T1 construct: human enzyme NAMPT (full length)
As to the kind of experiment: NMN fluorescence biochemical assay (stimulation of NMN synthesis by NAMPT). The settings on record: for EC50: concentration giving half-maximal activation, read-out: Enzymatic EC50; for Enzymatic Emax: fold change of maximal activation compared to DMSO. In outline: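 Full-length human NAMPT (100 nM) was preincubated 15 min at 37 °C with compound in 50 mM Tris-HCl pH 7.5, 10 mM MgCl2, 2 mM DTT, then reacted 1 h at 37 °C with 50 μM NAM, 100 μM PRPP, 4 mM ATP (stated solution concentrations). NMN was derivatised with acetophenone/KOH then formic acid and read at Ex/Em 382/445 nm; EC50 and Emax (fold over DMSO) reported.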

In assay [2] the test system is endogenous NAMPT in U2OS cells. Briefly: Cellular NAD+ modulation assay (NAD/NADH-Glo, U2OS cells). The settings on record: Homo sapiens; for maximal fold induction: read-out: Cellular Emax. It counts as cell-based. In outline: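 NAD/NADH-Glo luminescence quantified NAD+ after acid treatment (60 °C, 15 min) and neutralization of DTAB lysates. Beforehand, U2OS cells seeded 16 h earlier received compound concentration series for 24 h at 37 °C. Values given as half-maximal activation concentration (EC50) and maximal fold change versus DMSO (Emax).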

Setting [3] is: NMN synthesis by purified human NAMPT (100 nM).
The mark [4] stands for this setting: 24 hours incubation with compound.
The mark [5] stands for this setting: NMN fluorescence assay, purified human NAMPT 100 nM.
[6] abbreviates: 24 hours incubation, cellular NAD+.

Read-outs that look alike come from different tables or passages of the source. Where only a bound is given, the exact number is not on record here.

T1 sequence (P43490 whole entry): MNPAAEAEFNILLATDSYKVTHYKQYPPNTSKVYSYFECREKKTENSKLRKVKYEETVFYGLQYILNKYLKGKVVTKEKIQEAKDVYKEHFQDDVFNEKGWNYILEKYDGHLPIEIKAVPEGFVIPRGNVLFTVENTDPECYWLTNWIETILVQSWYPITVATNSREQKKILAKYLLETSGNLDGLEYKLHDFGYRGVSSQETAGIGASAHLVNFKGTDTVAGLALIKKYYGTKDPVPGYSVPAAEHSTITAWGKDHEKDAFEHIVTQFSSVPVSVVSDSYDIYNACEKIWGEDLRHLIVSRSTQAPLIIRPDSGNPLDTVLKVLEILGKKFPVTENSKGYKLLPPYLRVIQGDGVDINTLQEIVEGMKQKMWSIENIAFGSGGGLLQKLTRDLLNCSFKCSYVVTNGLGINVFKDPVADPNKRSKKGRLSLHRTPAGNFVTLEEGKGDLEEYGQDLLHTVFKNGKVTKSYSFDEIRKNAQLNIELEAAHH

Turning to `Cn1cccc(CC2c3ccccc3C(=O)N2Cc2ccc3[nH]c(=O)oc3c2)c1=O` (centres unmarked) [Compound 234, 6-((1-((1-methyl-2-oxo-1,2-dihydropyridin-3-yl)methyl)-3-oxoisoindolin-2-yl)methyl) benzo[d]oxazol-2(3H)-one], the values for the EC50 in assay [1] (setting [3]) and in assay [2] (setting [4]) were at least 5000 nM and 500 to 5000 nM, respectively. For the same compound, in assay [1], the “Enzymatic Emax” value was “A (A>3)”. For the same compound, the maximal fold induction in assay [2] (setting [4]) was over 1.5.

`Cn1ncc(Cl)c1CC1c2ccccc2C(C)(C)N1CC1CC(C(N)=O)C1` (centres unmarked) [Compound 607, 3-((3-((4-chloro-1-methyl-1H-pyrazol-5-yl)methyl)-1,1-dimethylisoindolin-2-yl)methyl)cyclobutane-1-carboxamide]: in assay [1] (setting [5]), the EC50 (in general, the concentration giving half of the maximal effect) was at least 5000 nM. Also, the “Enzymatic Emax” value in assay [1] is “C (2≥C)”. For the same compound, in assay [2] (setting [6]), the EC50 lay within 5000 to 50000 nM and the maximal fold induction is 1.2 to 1.5.

As for `Cc1ccccc1CC1c2ncccc2C(=O)N1Cc1ccc2[nH]c(=O)oc2c1` (centres unmarked) [Compound 151, 6-((7-(2-methylbenzyl)-5-oxo-5,7-dihydro-6H-pyrrolo[3,4-b]pyridin-6-yl)methyl)benzo[d]oxazol-2(3H)-one], the EC50 is at least 5000 nM in assay [1] (setting [3]) and 500 to 5000 nM in assay [2] (setting [4]). Besides, in assay [1], the “Enzymatic Emax” value is listed as “A (A>3)”. For the same compound, the maximal fold induction in assay [2] (setting [4]) was over 1.5.

For `Cc1ccnc(Br)c1CC1c2ccccc2C(=O)N1C/C=C/c1c[nH]nn1` (centres unmarked) [Compound 380, (E)-2-(3-(1H-1,2,3-triazol-4-yl)allyl)-3-((2-bromo-4-methylpyridin-3-yl)methyl) isoindolin-1-one], the EC50 in assay [1] (setting [5]) and in assay [2] (setting [6]) was under 500 nM throughout. Moreover, the “Enzymatic Emax” value in assay [1] is listed as “B (3≥B>2)”. Moreover, in assay [2] (setting [6]), the maximal fold induction was over 1.5.

For the compound `CCn1ncc(Cl)c1CC1c2ccccc2C(=O)N1CC1CC2(CNC(=O)O2)C1` (centres unmarked) [Compound 465, 2-((1-((4-chloro-1-ethyl-1H-pyrazol-5-yl)methyl)-3-oxoisoindolin-2-yl)methyl)-5-oxa-7-azaspiro[3.4]octan-6-one], the EC50 was 500 to 5000 nM in assay [1] (setting [5]) and under 500 nM in assay [2] (setting [6]). In addition, the “Enzymatic Emax” value in assay [1] is on record as “B (3≥B>2)”. For the same compound, in assay [2] (setting [6]), the maximal fold induction is over 1.5.

In the case of `COc1ccc(CN2C(=O)c3ccccc3C2Cc2c(Cl)cnn2C)cc1Cl` (centres unmarked) [Compound 544, 3-((4-chloro-1-methyl-1H-pyrazol-5-yl)methyl)-2-(3-chloro-4-methoxybenzyl)isoindolin-1-one], the EC50 in assay [1] (setting [5]) fell in the range of 500 to 5000 nM. Also, in assay [1], the “Enzymatic Emax” value is “C (2≥C)”. Further, in assay [2] (setting [6]), the EC50 lay in the range of 500 to 5000 nM and the maximal fold induction was 1.2 to 1.5.

Take `Cn1ncc(Cl)c1CC1c2ccccc2C2(CC2)N1CC1CC2(CNC(=O)O2)C1` (centres unmarked) [Compound 539, 2-((3′-((4-chloro-1-methyl-1H-pyrazol-5-yl)methyl)spiro[cyclopropane-1,1′-isoindolin]-2′-yl)methyl)-5-oxa-7-azaspiro[3.4]octan-6-one]: in assay [1] (setting [5]), the EC50 is at least 5000 nM. The “Enzymatic Emax” value in assay [1] is recorded as “B (3≥B>2)”. Moreover, in assay [2] (setting [6]), the EC50 fell in the range of 500 to 5000 nM and the maximal fold induction lay within 1.2 to 1.5.

For `O=c1[nH]c2ccc(CN3Cc4ccccc4S3(=O)=O)cc2o1` [Compound 9, 6-((1,1-dioxidobenzo[d]isothiazol-2(3H)-yl)methyl)benzo[d]oxazol-2(3H)-one], in assay [1] (setting [3]), the EC50 lay within 500 to 5000 nM. The “Enzymatic Emax” value in assay [1] is recorded as “B (3≥B>2)”. In assay [2] (setting [4]), the EC50 was 500 to 5000 nM and the maximal fold induction is over 1.5.

On to `COC1CN(c2ccc3c(c2)C(C)N(Cc2ccc4[nH]c(=O)oc4c2)C3=O)C1` (centres unmarked) [Compound 128, 6-((5-(3-methoxyazetidin-1-yl)-3-methyl-1-oxoisoindolin-2-yl)methyl)benzo[d]oxazol-2(3H)-one], for which the EC50 in assay [1] (setting [3]) was at least 5000 nM. For the same compound, the “Enzymatic Emax” value in assay [1] is “B (3≥B>2)”. Also, in assay [2] (setting [4]), the EC50 was 500 to 5000 nM and the maximal fold induction is over 1.5.

Consider `CN(C)c1nn(C)c(CC2c3ccccc3C(=O)N2Cc2ccc3[nH]nnc3c2)c1Cl` (centres unmarked) [Compound 420, 2-((1H-benzo[d][1,2,3]triazol-5-yl)methyl)-3-((4-chloro-3-(dimethylamino)-1-methyl-1H-pyrazol-5-yl)methyl)isoindolin-1-one], for which the EC50 in assay [1] (setting [5]) is under 500 nM. Moreover, the “Enzymatic Emax” value in assay [1] is “B (3≥B>2)”. In assay [2] (setting [6]), the EC50 is under 500 nM and the maximal fold induction is over 1.5.

`Cn1ncc(Cl)c1CC1c2cc(F)ccc2C(=S)N1CC1CC2(CNC(=O)O2)C1` (centres unmarked) [Compound 521, 2-((3-((4-chloro-1-methyl-1H-pyrazol-5-yl)methyl)-5-fluoro-1-thioxoisoindolin-2-yl)methyl)-5-oxa-7-azaspiro[3.4]octan-6-one]: the EC50 in assay [1] (setting [5]) is under 500 nM. In addition, the “Enzymatic Emax” value in assay [1] is reported as “B (3≥B>2)”. Further, in assay [2] (setting [6]), the EC50 fell in the range of 500 to 5000 nM and the maximal fold induction was over 1.5.

For `Cn1ncc(Cl)c1CC1c2ccccc2C(=O)N1Cc1ccc2c(c1)ncn2C` (centres unmarked) [Compound 585, 3-((4-chloro-1-methyl-1H-pyrazol-5-yl)methyl)-2-((1-methyl-1H-benzo[d]imidazol-5-yl)methyl)isoindolin-1-one], the EC50 in assay [1] (setting [5]) was 500 to 5000 nM. In addition, in assay [1], the “Enzymatic Emax” value was “B (3≥B>2)”. In addition, in assay [2] (setting [6]), the EC50 lay in the range of 500 to 5000 nM and the maximal fold induction is over 1.5.

`Cn1ncc(Cl)c1CC1c2cc(CC3COC3)ccc2C(=O)N1Cc1ccc2[nH]nnc2c1` (centres unmarked) [Compound 394, 2-((1H-benzo[d][1,2,3]triazol-5-yl)methyl)-3-((4-chloro-1-methyl-1H-pyrazol-5-yl)methyl)-5-(oxetan-3-ylmethyl)isoindolin-1-one]: the EC50 in assay [1] (setting [5]) was under 500 nM. The “Enzymatic Emax” value in assay [1] is given as “B (3≥B>2)”. In addition, in assay [2] (setting [6]), the EC50 is 500 to 5000 nM and the maximal fold induction is over 1.5.

With `CC1c2cc(NC3CC4(CNC4)C3)ccc2C(=O)N1Cc1ccc2[nH]c(=O)oc2c1` (centres unmarked) [Compound 79, 6-((5-((2-azaspiro[3.3]heptan-6-yl)amino)-3-methyl-1-oxoisoindolin-2-yl)methyl)benzo[d]oxazol-2(3H)-one], the EC50 in assay [1] (setting [3]) was at least 5000 nM. For the same compound, the “Enzymatic Emax” value in assay [1] is “A (A>3)”. For the same compound, in assay [2] (setting [4]), the EC50 is under 500 nM and the maximal fold induction is at most 1.2.

`Cn1ncc(Cl)c1CC1c2cc(C3CCOCC3)ccc2C(=O)N1Cc1ccc2[nH]nnc2c1` (centres unmarked) [Compound 398, 2-((1H-benzo[d][1,2,3]triazol-5-yl)methyl)-3-((4-chloro-1-methyl-1H-pyrazol-5-yl)methyl)-5-(tetrahydro-2H-pyran-4-yl)isoindolin-1-one]: in assay [1] (setting [5]), the EC50 is under 500 nM. In addition, the “Enzymatic Emax” value in assay [1] was “A (A>3)”. In addition, in assay [2] (setting [6]), the EC50 was 500 to 5000 nM and the maximal fold induction was over 1.5.

Regarding `Cn1ncc(Cl)c1CC1c2ccccc2C(C)(C)N1Cc1cnc(O)s1` (centres unmarked) [Compound 614, 5-((3-((4-chloro-1-methyl-1H-pyrazol-5-yl)methyl)-1,1-dimethylisoindolin-2-yl)methyl)thiazol-2-ol], the EC50 fell in the range of 500 to 5000 nM in assay [1] (setting [5]) and 5000 to 50000 nM in assay [2] (setting [6]). Besides, the “Enzymatic Emax” value in assay [1] was “B (3≥B>2)”. Further, the maximal fold induction in assay [2] (setting [6]) is at most 1.2.

With `Cc1nn(C)c(C#N)c1CC1c2ccccc2C(=O)N1Cc1ccc2[nH]nnc2c1` (centres unmarked) [Compound 341, 4-((2-((1H-benzo[d][1,2,3]triazol-5-yl)methyl)-3-oxoisoindolin-1-yl)methyl)-1,3-dimethyl-1H-pyrazole-5-carbonitrile], in assay [1] (setting [5]), the EC50 is under 500 nM. Moreover, the “Enzymatic Emax” value in assay [1] is reported as “A (A>3)”. In assay [2] (setting [6]), the EC50 is under 500 nM and the maximal fold induction was over 1.5.

The values are drawn from patent publication US20260078130A1, “NAMPT MODULATORS, PREPARATIONS, AND USES THEREOF” (SIRONAX LTD., priority 2022, published 2026).
